Results: PMC5218480 (PLoS ONE, 2017)

Tested on: MV-4-11 cells
Experiment: Gene expression microarray analysis (Affymetrix PrimeView) and GSEA
Type: cell-based, human
Set-up: RFU PODN (11730768_x_at) / Fold change /veh PODN (11730768_x_at) / RFU LINC00158 (11744669_a_at) / Fold change /veh LINC00158 (11744669_a_at) / RFU DUSP10 (11751237_a_at) / Fold change /veh DUSP10 (11751237_a_at) / RFU ID3 (11757404_x_at) / Fold change /veh ID3 (11757404_x_at) / RFU PLEKHG5 (11737974_s_at) / Fold change /veh PLEKHG5 (11737974_s_at) / RFU LRRC4B (11730491_at) / Fold change /veh LRRC4B (11730491_at) / RFU GIMAP4 (11747438_a_at) / Fold change /veh GIMAP4 (11747438_a_at) / RFU KRT8 (11758183_x_at) / Fold change /veh KRT8 (11758183_x_at) / RFU CNN1 (11734310_a_at) / Fold change /veh CNN1 (11734310_a_at) / RFU VPS37D (11726825_at) / Fold change /veh VPS37D (11726825_at) / RFU C10orf10 (11716522_x_at) / Fold change /veh C10orf10 (11716522_x_at) / RFU KIR2DL2 /// KIR2DL4 /// KIR2DL5A /// KIR2DL5B /// KIR2DS1 /// KIR2DS2 /// KIR2DS3 /// KIR2DS4 /// KIR3DL3 /// KIR3DL3 /// KIR3DS1 (11738374_at) / Fold change /veh KIR2DL2 /// KIR2DL4 /// KIR2DL5A /// KIR2DL5B /// KIR2DS1 /// KIR2DS2 /// KIR2DS3 /// KIR2DS4 /// KIR3DL3 /// KIR3DL3 /// KIR3DS1 (11738374_at) / RFU C1QL1 (11718748_at) / Fold change /veh C1QL1 (11718748_at) / RFU TMPRSS4 (11747572_a_at) / Fold change /veh TMPRSS4 (11747572_a_at) / RFU HAMP (11756126_x_at) / Fold change /veh HAMP (11756126_x_at) / RFU RNFT2 (11725882_a_at) / Fold change /veh RNFT2 (11725882_a_at) / RFU NR4A2 (11747474_a_at) / Fold change /veh NR4A2 (11747474_a_at) / RFU ABCC12 (11746883_a_at) / Fold change /veh ABCC12 (11746883_a_at) / RFU TMEM136 (11760407_x_at) / Fold change /veh TMEM136 (11760407_x_at) / RFU CLDN22 /// WWC2 (11732394_at) / Fold change /veh CLDN22 /// WWC2 (11732394_at) / RFU HLA-DPB1 (11760878_x_at) / Fold change /veh HLA-DPB1 (11760878_x_at) / RFU SPINT1 (11716480_a_at) / Fold change /veh SPINT1 (11716480_a_at) / RFU GAP43 (11754022_s_at) / Fold change /veh GAP43 (11754022_s_at) / RFU A4GNT (11735810_at) / Fold change /veh A4GNT (11735810_at) / RFU PRB3 (11715151_x_at) / Fold change /veh PRB3 (11715151_x_at) / RFU TUBB4B (11761932_at) / Fold change /veh TUBB4B (11761932_at) / RFU CAPN14 (11732068_a_at) / Fold change /veh CAPN14 (11732068_a_at) / RFU TMCC2 (11721928_a_at) / Fold change /veh TMCC2 (11721928_a_at) / RFU IRGQ (11745062_a_at) / Fold change /veh IRGQ (11745062_a_at) / RFU FAM174B (11720279_a_at) / Fold change /veh FAM174B (11720279_a_at) / RFU TMPRSS4 (11748680_a_at) / Fold change /veh TMPRSS4 (11748680_a_at) / RFU FAM212B (11763350_a_at) / Fold change /veh FAM212B (11763350_a_at) / RFU PLEKHG5 (11743358_a_at) / Fold change /veh PLEKHG5 (11743358_a_at) / RFU ZSCAN30 (11745921_a_at) / Fold change /veh ZSCAN30 (11745921_a_at) / RFU CMKLR1 (11741424_a_at) / Fold change /veh CMKLR1 (11741424_a_at) / RFU LOC101060620 /// MAPK8IP1 (11723275_at) / Fold change /veh LOC101060620 /// MAPK8IP1 (11723275_at) / RFU SPTSSB (11747773_x_at) / Fold change /veh SPTSSB (11747773_x_at) / RFU PRSS12 (11739890_at) / Fold change /veh PRSS12 (11739890_at) / RFU BIN1 (11741810_x_at) / Fold change /veh BIN1 (11741810_x_at) / RFU WNT11 (11732464_a_at) / Fold change /veh WNT11 (11732464_a_at) / RFU C10orf10 (11716521_a_at) / Fold change /veh C10orf10 (11716521_a_at) / RFU C5orf56 (11738089_at) / Fold change /veh C5orf56 (11738089_at) / RFU CYB561 (11721691_x_at) / Fold change /veh CYB561 (11721691_x_at) / RFU ANKRD19P (11752326_a_at) / Fold change /veh ANKRD19P (11752326_a_at) / RFU OR2T12 /// OR2T33 /// OR2T8 (11738714_s_at) / Fold change /veh OR2T12 /// OR2T33 /// OR2T8 (11738714_s_at) / RFU VCAN (11748164_a_at) / Fold change /veh VCAN (11748164_a_at) / RFU JSRP1 (11732532_at) / Fold change /veh JSRP1 (11732532_at) / RFU KRTAP10-11 (11738290_x_at) / Fold change /veh KRTAP10-11 (11738290_x_at) / RFU MYO3A (11730013_a_at) / Fold change /veh MYO3A (11730013_a_at) / RFU EBF3 (11725865_a_at) / Fold change /veh EBF3 (11725865_a_at) / RFU CAMK2N1 (11719241_x_at) / Fold change /veh CAMK2N1 (11719241_x_at) / RFU C5orf56 (11738088_a_at) / Fold change /veh C5orf56 (11738088_a_at) / RFU OLFML3 (11715873_a_at) / Fold change /veh OLFML3 (11715873_a_at) / RFU LOC100653217 /// NTM (11731650_a_at) / Fold change /veh LOC100653217 /// NTM (11731650_a_at) / RFU MAPK11 (11762145_a_at) / Fold change /veh MAPK11 (11762145_a_at) / RFU FIZ1 (11724087_x_at) / Fold change /veh FIZ1 (11724087_x_at) / RFU OASL (11726364_x_at) / Fold change /veh OASL (11726364_x_at) / RFU SOX15 (11748057_x_at) / Fold change /veh SOX15 (11748057_x_at) / RFU CD79A (11719716_a_at) / Fold change /veh CD79A (11719716_a_at) / RFU HIST1H1D (11736915_at) / Fold change /veh HIST1H1D (11736915_at) / RFU CASKIN2 (11723855_a_at) / Fold change /veh CASKIN2 (11723855_a_at) / RFU LOC730098 (11760151_x_at) / Fold change /veh LOC730098 (11760151_x_at) / RFU OR4N2 (11742367_at) / Fold change /veh OR4N2 (11742367_at) / RFU PRRT2 (11749266_a_at) / Fold change /veh PRRT2 (11749266_a_at) / RFU SNX32 (11753110_a_at) / Fold change /veh SNX32 (11753110_a_at) / RFU CDHR5 (11726645_a_at) / Fold change /veh CDHR5 (11726645_a_at) / RFU RCAN1 (11760418_a_at) / Fold change /veh RCAN1 (11760418_a_at) / RFU FAM167A (11723789_a_at) / Fold change /veh FAM167A (11723789_a_at) / RFU FAM26E (11764081_at) / Fold change /veh FAM26E (11764081_at) / RFU ISYNA1 (11749810_s_at) / Fold change /veh ISYNA1 (11749810_s_at) / RFU ACY1 (11761880_at) / Fold change /veh ACY1 (11761880_at) / RFU 11764098_at / Fold change /veh 11764098_at / RFU SAMD14 (11745864_x_at) / Fold change /veh SAMD14 (11745864_x_at) / RFU NPB (11741838_a_at) / Fold change /veh NPB (11741838_a_at) / RFU TMPRSS6 (11731388_a_at) / Fold change /veh TMPRSS6 (11731388_a_at) / RFU KRTAP10-2 (11738614_at) / Fold change /veh KRTAP10-2 (11738614_at) / RFU ARHGAP8 /// PRR5-ARHGAP8 (11727945_x_at) / Fold change /veh ARHGAP8 /// PRR5-ARHGAP8 (11727945_x_at) / RFU KRTAP5-7 /// NADSYN1 (11734609_at) / Fold change /veh KRTAP5-7 /// NADSYN1 (11734609_at) / RFU RASL12 (11751679_a_at) / Fold change /veh RASL12 (11751679_a_at) / RFU CDKN2B (11736163_a_at) / Fold change /veh CDKN2B (11736163_a_at) / RFU PRF1 (11729649_at) / Fold change /veh PRF1 (11729649_at) / RFU, ZNF638 /// ZNF638-IT1 / Fold change vs veh, ZNF638 /// ZNF638-IT1 / RFU, PANK3 / Fold change vs veh, PANK3 / RFU, SH3YL1 / Fold change vs veh, SH3YL1 / RFU, ZEB2 / Fold change vs veh, ZEB2 / RFU, NRIP1 / Fold change vs veh, NRIP1 / RFU, PTTG1IP / Fold change vs veh, PTTG1IP / RFU, CAPN2 / Fold change vs veh, CAPN2 / RFU, MED14 / Fold change vs veh, MED14 / RFU, SNORA58 / Fold change vs veh, SNORA58 / RFU, C1orf63 / Fold change vs veh, C1orf63 / RFU, LRRFIP1 / Fold change vs veh, LRRFIP1 / RFU, NDUFAF7 / Fold change vs veh, NDUFAF7 / RFU, SLC12A2 / Fold change vs veh, SLC12A2 / RFU, IBTK / Fold change vs veh, IBTK / RFU, ESF1 / Fold change vs veh, ESF1 / Fold change vs veh, TMEM50B / RFU, TAOK1 / Fold change vs veh, TAOK1 / RFU, ACBD3 / Fold change vs veh, ACBD3 / RFU, TMA16 / Fold change vs veh, TMA16 / RFU, RWDD3 / Fold change vs veh, RWDD3 / RFU, BCAT1 / Fold change vs veh, BCAT1 / RFU, EDEM3 / Fold change vs veh, EDEM3 / RFU, TMEM33 / Fold change vs veh, TMEM33 / RFU, WDR75 / Fold change vs veh, WDR75 / RFU, AHCTF1 / Fold change vs veh, AHCTF1 / RFU, TFRC / Fold change vs veh, TFRC / RFU, ZDHHC17 / Fold change vs veh, ZDHHC17 / RFU, NOM1 / Fold change vs veh, NOM1 / RFU, ARL8B / Fold change vs veh, ARL8B / RFU, ZBTB11 / Fold change vs veh, ZBTB11 / RFU, TAMM41 / Fold change vs veh, TAMM41 / RFU, KIAA1704 /// LOC100996395 / Fold change vs veh, KIAA1704 /// LOC100996395 / RFU, ING1 / Fold change vs veh, ING1 / RFU, TRMT61B / Fold change vs veh, TRMT61B / RFU, FUBP3 / Fold change vs veh, FUBP3 / RFU, TP53 / Fold change vs veh, TP53 / RFU, TNKS2 / Fold change vs veh, TNKS2 / RFU, ZFP14 / Fold change vs veh, ZFP14 / RFU, ACTR2 / Fold change vs veh, ACTR2 / RFU, PPP3R1 / Fold change vs veh, PPP3R1 / RFU, PIK3R1 / Fold change vs veh, PIK3R1 / RFU, HNRNPA1 / Fold change vs veh, HNRNPA1 / RFU, RNF170 / Fold change vs veh, RNF170 / RFU, ZNF28 / Fold change vs veh, ZNF28 / RFU, RNGTT / Fold change vs veh, RNGTT / RFU, OGT / Fold change vs veh, OGT / RFU, BRD1 / Fold change vs veh, BRD1 / RFU, MARS / Fold change vs veh, MARS / RFU, ZNF655 / Fold change vs veh, ZNF655 / RFU, FAHD1 / Fold change vs veh, FAHD1 / RFU, BDP1 / Fold change vs veh, BDP1 / RFU, LRRCC1 / Fold change vs veh, LRRCC1 / RFU, ARID1A / Fold change vs veh, ARID1A / RFU, ZNF146 / Fold change vs veh, ZNF146 / RFU, ZNF330 / Fold change vs veh, ZNF330 / RFU, GPN3 / Fold change vs veh, GPN3 / RFU, C9orf123 / Fold change vs veh, C9orf123 / RFU, N4BP2L2 / Fold change vs veh, N4BP2L2 / RFU, ARFIP1 / Fold change vs veh, ARFIP1 / RFU, FAM179B / Fold change vs veh, FAM179B / RFU, BCL10 / Fold change vs veh, BCL10 / RFU, UHRF1BP1L / Fold change vs veh, UHRF1BP1L / RFU, BET1 / Fold change vs veh, BET1 / RFU, CNOT2 / Fold change vs veh, CNOT2 / RFU, ZNF268 / Fold change vs veh, ZNF268 / Fold change vs veh, ZNF507 / RFU, DGCR2 / Fold change vs veh, DGCR2 / RFU, WDSUB1 / Fold change vs veh, WDSUB1 / Fold change vs veh, HSP90B1 /// MIR3652 / RFU, ADSS / Fold change vs veh, ADSS / RFU, GK / Fold change vs veh, GK / RFU, ZNF148 / Fold change vs veh, ZNF148 / RFU, TAF9 / Fold change vs veh, TAF9 / RFU, SLC1A5 / Fold change vs veh, SLC1A5 / RFU, SLMO2 / Fold change vs veh, SLMO2 / RFU, ABCC4 / Fold change vs veh, ABCC4 / RFU, LOC101060439 /// RAP1B / Fold change vs veh, LOC101060439 /// RAP1B / RFU, RFX7 / Fold change vs veh, RFX7 / RFU, GTPBP10 / Fold change vs veh, GTPBP10 / RFU, CNEP1R1 / Fold change vs veh, CNEP1R1 / RFU, BIVM-ERCC5 /// ERCC5 / Fold change vs veh, BIVM-ERCC5 /// ERCC5 / RFU, ILF3 / Fold change vs veh, ILF3 / RFU 11762660_at / Fold change /veh 11762660_at / RFU VCAN (11757783_s_at) / Fold change /veh VCAN (11757783_s_at) / RFU DDX43 (11728927_at) / Fold change /veh DDX43 (11728927_at) / RFU KRT8 (11758188_x_at) / Fold change /veh KRT8 (11758188_x_at) / RFU NKD1 (11759106_at) / Fold change /veh NKD1 (11759106_at) / RFU SRD5A1 (11742802_a_at) / Fold change /veh SRD5A1 (11742802_a_at) / RFU TPSAB1 /// TPSB2 (11721975_s_at) / Fold change /veh TPSAB1 /// TPSB2 (11721975_s_at) / RFU GSTM3 (11746129_a_at) / Fold change /veh GSTM3 (11746129_a_at) / RFU IL23R (11737362_x_at) / Fold change /veh IL23R (11737362_x_at) / RFU TMEM51 (11727254_a_at) / Fold change /veh TMEM51 (11727254_a_at) / RFU PIWIL2 (11732686_x_at) / Fold change /veh PIWIL2 (11732686_x_at) / RFU ORM1 (11744905_x_at) / Fold change /veh ORM1 (11744905_x_at) / RFU CCDC152 (11743942_at) / Fold change /veh CCDC152 (11743942_at) / RFU ECM1 (11717891_a_at) / Fold change /veh ECM1 (11717891_a_at) / RFU IL23R (11748794_a_at) / Fold change /veh IL23R (11748794_a_at) / RFU TNFAIP8L3 (11732012_x_at) / Fold change /veh TNFAIP8L3 (11732012_x_at) / RFU MBOAT4 (11741988_at) / Fold change /veh MBOAT4 (11741988_at) / RFU 11764193_at / Fold change /veh 11764193_at / RFU TMEM53 (11763286_at) / Fold change /veh TMEM53 (11763286_at) / RFU MAGEB2 (11727129_at) / Fold change /veh MAGEB2 (11727129_at) / RFU TMEM200A (11744735_a_at) / Fold change /veh TMEM200A (11744735_a_at) / RFU CCDC152 (11751479_a_at) / Fold change /veh CCDC152 (11751479_a_at) / RFU FAM211A (11726209_a_at) / Fold change /veh FAM211A (11726209_a_at) / RFU RGS16 (11746705_a_at) / Fold change /veh RGS16 (11746705_a_at) / RFU VCAN (11755009_s_at) / Fold change /veh VCAN (11755009_s_at) / RFU RHOB (11743442_s_at) / Fold change /veh RHOB (11743442_s_at) / RFU RGS16 (11720943_a_at) / Fold change /veh RGS16 (11720943_a_at) / RFU RGS16 (11720944_at) / Fold change /veh RGS16 (11720944_at) / RFU, VPS4B / Fold change vs veh, VPS4B / RFU, CREB1 / Fold change vs veh, CREB1 / RFU, DNAJC13 / Fold change vs veh, DNAJC13 / RFU, GNAQ / Fold change vs veh, GNAQ / RFU, CDK5R1 / Fold change vs veh, CDK5R1 / RFU, ZRANB3 / Fold change vs veh, ZRANB3 / RFU, CUL4A / Fold change vs veh, CUL4A / RFU, CCNY / Fold change vs veh, CCNY / RFU, UFL1 / Fold change vs veh, UFL1 / RFU, COG3 / Fold change vs veh, COG3 / RFU, DIAPH2 / Fold change vs veh, DIAPH2 / RFU, SKA2 / Fold change vs veh, SKA2 / RFU, AFF3 / Fold change vs veh, AFF3 / RFU, LMF1 / Fold change vs veh, LMF1 / RFU, IPO11 / Fold change vs veh, IPO11 / RFU, DFFB / Fold change vs veh, DFFB / RFU, FOXP1 / Fold change vs veh, FOXP1 / RFU, CARD8 / Fold change vs veh, CARD8 / RFU, STRN3 / Fold change vs veh, STRN3 / RFU, ADK / Fold change vs veh, ADK / RFU, RASSF2 / Fold change vs veh, RASSF2 / RFU, WIPF1 / Fold change vs veh, WIPF1 / RFU, LARP1B / Fold change vs veh, LARP1B / RFU, RASA1 / Fold change vs veh, RASA1 / RFU, RB1 / Fold change vs veh, RB1 / RFU, PPFIA1 / Fold change vs veh, PPFIA1 / RFU, MAT2A / Fold change vs veh, MAT2A / RFU, CCT5 / Fold change vs veh, CCT5 / RFU, WDR92 / Fold change vs veh, WDR92 / RFU, CUX1 / Fold change vs veh, CUX1 / RFU, TTC7A / Fold change vs veh, TTC7A / RFU, TMEM135 / Fold change vs veh, TMEM135 / RFU, DEPTOR / Fold change vs veh, DEPTOR / RFU, CPM / Fold change vs veh, CPM / RFU, DNAJB6 / Fold change vs veh, DNAJB6 / RFU, CACNA2D3 / Fold change vs veh, CACNA2D3 / RFU, DTX4 / Fold change vs veh, DTX4 / RFU, TFCP2 / Fold change vs veh, TFCP2 / RFU, GMCL1 /// GMCL1P1 / Fold change vs veh, GMCL1 /// GMCL1P1 / RFU, AEBP2 / Fold change vs veh, AEBP2 / RFU, SNHG1 /// SNORD22 /// SNORD25 /// SNORD26 /// SNORD27 /// SNORD28 /// SNORD29 /// SNORD31 / Fold change vs veh, SNHG1 /// SNORD22 /// SNORD25 /// SNORD26 /// SNORD27 /// SNORD28 /// SNORD29 /// SNORD31 / Fold change (Aza/veh), C12orf56 (ProbeSet 11735607_a_at) / Fold change (ACY-1035/veh), C12orf56 (ProbeSet 11735607_a_at) / Fold change (Aza/veh), FGFR1OP (ProbeSet 11751329_s_at) / Fold change (ACY-1035/veh), FGFR1OP (ProbeSet 11751329_s_at) / Fold change (Aza/veh), VPS36 (ProbeSet 11739960_a_at) / Fold change (ACY-1035/veh), VPS36 (ProbeSet 11739960_a_at) / RFU SYPL1 (11715823_x_at) / Fold change /veh SYPL1 (11715823_x_at) / RFU IGFBP7 (11715501_s_at) / Fold change /veh IGFBP7 (11715501_s_at) / RFU REEP3 (11722064_at) / Fold change /veh REEP3 (11722064_at) / RFU IGLL1 (11728026_x_at) / Fold change /veh IGLL1 (11728026_x_at): dose or concentration left out as unconfirmed
Conditions: MV-4-11 cells, 48 hours

Nc1ncn([C@@H]2O[C@H](CO)[C@@H](O)[C@H]2O)c(=O)n1 [azacitidine]
RFU SAMD14 (11745864_x_at): 17.52 RFU
